According to patent publication US11352396B2, “Antimicrobial peptides and methods of using same” (Zoetis Services LLC, priority 2017, dated 2022):

Tests used:
[1] = tested on: MSSP (Methicillin-Susceptible Staphylococcus pseudintermedius); test: MIC against selected strains of MSSP; format: cell-based; set-up: key to MIC MSSP 84658 / MIC MSSP 86000 / MIC MSSP 71990 / MIC MSSP 72036 / MIC MSSP 78032: MIC in μM; key to MIC MSSP 86001 / MIC MSSP 72191 / MIC MSSP 76986 / MIC MSSP 77378: MIC in μM (first well with no visible growth); MIC MSSP 49051 / MIC MSSP 81923 / MIC MSSP 84250 / Effect on MSSP 86000 / Effect on MSSP 72036 / Effect on MSSP 78032: unit not given beside the values; settings: for MIC MSSP 49051: strain 49051, Table 3; for MIC MSSP 71990: strain 71990, Table 3; for MIC MSSP 72036: strain 72036, Table 3; for MIC MSSP 72191: strain 72191, Table 3; for MIC MSSP 76986: strain 76986, Table 3; for MIC MSSP 77378: strain 77378, Table 3; for MIC MSSP 78032: strain 78032, Table 3; for MIC MSSP 81923: strain 81923, Table 3; for MIC MSSP 84250: strain 84250, Table 3; for MIC MSSP 84658: strain 84658, Table 3; for MIC MSSP 86000: strain 86000, Table 3; for MIC MSSP 86001: strain 86001, Table 3
Experimental: (§1) Peptides according to SEQ ID NOs as listed in Table 1 were prepared by a commercial manufacturer (CS Bio, Menlo Park, Calif.) using solid phase synthesis. Antimicrobial activity was assessed by determining the Minimal Inhibitory Concentration (MIC) against S. aureus and E. coli. Briefly, Microbroth MICs were performed using CLSI methodology (VET01-S2). For S. aureus and E. coli ATCC strains, TSA with 5% lysed horse blood agar was used for overnight culturing at 37° C. ambient air. A 0.5 mM stock for each peptide was made with cell culture water, 0.01% acetic acid and serially diluted and spotted (10 μL) in a 96-well plate for in assay dose titration concentration of 50 μM to 0.05 μM. 0.5 McFarland Standard of each strain was diluted 1:250 in Mueller-Hinton Broth (MHB). 90 μL of culture suspension was then added upon drug in the 96-well plate for overnight incubation for 18-20 hours. The MIC was determined visually at the first well of no visible growth at the corresponding concentration.
(§2) Antimicrobial activity of the peptides listed in Table 2 against different strains of MSSP (Methicillin-Susceptible Staphylococcus pseudintermedius) and MRSP (Methicillin-Resistant Staphylococcus pseudintermedius) was further assessed. The results are in Tables 3 and 4, respectively.

[2] = tested on: MRSP (Methicillin-Resistant Staphylococcus pseudintermedius); test: MIC against selected strains of MRSP; format: cell-based; set-up: key to MIC MRSP 88493 / MIC MRSP 72035 / MIC MRSP 81926: MIC in μM; key to MIC MRSP 71994 / MIC MRSP 79882 / MIC MRSP 80729 / MIC MRSP 86002: MIC in μM (first well with no visible growth); key to MIC MRSP 72192 / MIC MRSP 76923 / MR 71994 / Mr 88493 / MR 72035 / MR 72192 / MR 76923 / MR 79882 / MR 80279 / MR 81926 / MR 86002 / MR 87665: MIC in μM (visual, first well with no growth); MIC MRSP 87655: unit not given beside the values; settings: for MIC MRSP 71994: strain 71994, Table 4; for MIC MRSP 72035: strain 72035, Table 4; for MIC MRSP 72192: strain 72192, Table 4; for MIC MRSP 76923: strain 76923, Table 4; for MIC MRSP 79882: strain 79882, Table 4; for MIC MRSP 80729: strain 80729, Table 4; for MIC MRSP 81926: strain 81926, Table 4; for MIC MRSP 86002: strain 86002, Table 4; for MIC MRSP 87655: strain 87655, Table 4; for MIC MRSP 88493: strain 88493, Table 4
Experimental: as §1, §2

cRBC = format: cell-based, canine
Experimental: SEQ ID NO: 1 was selected for further research. Toxicity of SEQ ID NO: 1 to eukaryotic blood cells was compared to that of tachyplesin (SEQ ID NO: 13). A standard, well referenced red blood cell hemolysis assay was employed against multiple species to test the lysis potential of the peptides. Red blood cells (RBCs) were prepared and isolated by several centrifuge and wash steps to remove the plasma fraction. A dose titration (50 μM to 0.05 μM) of test peptides and control peptide melittin were spotted from 50 mM stocks in a 384 well plate. Prepared RBCs were incubated with peptide for one hour at 37° C. Percent hemolysis was measured by optical density at 405 nm and utilizing 1% TritonX100 as hundred percent effect (HPE) and phosphate buffer alone as zero percent effect (ZPE).

[3] = tested on: Canine-derived epithelial keratinocyte (CPEK) cells; format: cell-based
Experimental: Safety of the peptides listed in table 2 was determining by measuring cell viability. Canine-derived epithelial keratinocyte (CPEK) cells were propagated to determine cell viability in the presence of peptides. Cells were grown from a frozen stock in CnT-09-5 (with supplements) pre-warmed media in a T75 flask and incubated overnight at 37° C., 5% CO2. Cells were washed with phosphate buffer and replenished with pre-warmed CnT-05-9 media and repeated for several days until cells reached a density of 6.6×10^4 cells/mL. Cells were then transferred to a 384 well plate, allowed to settle and dosed with peptides and melittin control peptide (50 μM to 0.05 μM) and incubated overnight at 37° C., 5% CO2. 0.1% TritonX100 as (HPE) and phosphate buffer alone as (ZPE) were added to the plates to calculate percent effect once the assay was terminated with 10 μL CELLTITER-GLO® assay reagents for a luminescent readout.

Substance	MIC MSSP 49051 [1]	MIC MSSP 71990 [1]	MIC MSSP 72036 [1]	MIC MSSP 72191 [1]	MIC MSSP 76986 [1]	MIC MSSP 77378 [1]	MIC MSSP 78032 [1]	MIC MSSP 81923 [1]	MIC MSSP 84250 [1]	MIC MSSP 84658 [1]	MIC MSSP 86000 [1]	MIC MSSP 86001 [1]	MIC MRSP 71994 [2]	MIC MRSP 72035 [2]	MIC MRSP 72192 [2]	MIC MRSP 76923 [2]	MIC MRSP 79882 [2]	MIC MRSP 80729 [2]	MIC MRSP 81926 [2]	MIC MRSP 86002 [2]	other results
1 (KWCFRVCYRGICYRRCRD; Antimicrobial peptide) [compound 1]	1.6	1.6	1.6	1.6	1.6	1.6	1.6	1.6	1.6	1.6	1.6	1.6	1.6	1.6	1.6	1.6	1.6	1.6	1.6	1.6	MIC MRSP 87655 [2]: 1.6; MIC MRSP 88493 [2]: 1.6; cRBC (50 μM) (cRBC): 20.5; CPEK (50 μM) [3]: 21.5
2 (RWCFRVCYRGICYRRCRD; Artificial antimicrobial peptide) [compound 2]	1.6	1.6	1.6	1.6	1.6	1.6	1.6	3.1	1.6	3.1	1.6	1.6	1.6	1.6	1.6	1.6	0.8	1.6	1.6	1.6	MIC MRSP 87655 [2]: 1.6; MIC MRSP 88493 [2]: 1.6; cRBC (50 μM) (cRBC): 64.0; CPEK (50 μM) [3]: −1.7
3 (GWCFRVCYRGICYRRCRD; Artificial Antimicrobial peptide) [compound 3]	1.6	1.6	1.6	1.6	1.6	0.4	1.6	1.6	1.6	1.6	1.6	0.8	1.6	1.6	1.6	1.6	0.8	1.6	1.6	1.6	MIC MRSP 87655 [2]: 1.6; MIC MRSP 88493 [2]: 1.6; cRBC (50 μM) (cRBC): 67.1; CPEK (50 μM) [3]: 42.1
4 (KFCFRVCYRGICYRRCRD; Artificial antimicrobial peptide) [compound 4]	1.6	1.6	0.8	0.8	0.8	0.4	0.8	1.6	1.6	1.6	1.6	0.8	1.6	1.6	1.6	0.8	0.8	0.8	0.8	1.6	MIC MRSP 87655 [2]: 1.6; MIC MRSP 88493 [2]: 1.6; cRBC (50 μM) (cRBC): 67.1; CPEK (50 μM) [3]: 16.6
5 (KWCFYVCYRGICYRRCRD; Artificial Antimicrobial peptide) [compound 5]	1.6	1.6	1.6	1.6	1.6	0.8	1.6	1.6	1.6	1.6	1.6	1.6	1.6	1.6	1.6	1.6	1.6	1.6	1.6	1.6	MIC MRSP 87655 [2]: 1.6; MIC MRSP 88493 [2]: 1.6; cRBC (50 μM) (cRBC): 3.1; CPEK (50 μM) [3]: 28.6
6 (KWCFRVCRRGICYRRCRD; Artificial Antimicrobial peptide) [compound 6]	3.1	3.1	3.1	3.1	3.1	1.6	3.1	3.1	3.1	3.1	3.1	3.1	3.1	3.1	3.1	3.1	3.1	3.1	3.1	3.1	MIC MRSP 87655 [2]: 3.1; MIC MRSP 88493 [2]: 3.1; cRBC (50 μM) (cRBC): 1.1; CPEK (50 μM) [3]: 4.1
7 (KWCFRVCYRGVCYRRCRD; Artificial Antimicrobial peptide) [compound 7]	1.6	1.6	1.6	1.6	1.6	0.8	1.6	1.6	1.6	1.6	1.6	1.6	1.6	1.6	1.6	1.6	1.6	1.6	1.6	1.6	MIC MRSP 87655 [2]: 1.6; MIC MRSP 88493 [2]: 1.6; cRBC (50 μM) (cRBC): 84.1; CPEK (50 μM) [3]: 11.3
